From US6358929B1, “Use of a peptide preventing the intolerance reactions of the skin, in particular in cosmetic compositions” (L'Oreal, priority 1998, dated 2002)

Columns and labels:
[1] = system: volunteer patients in whom a contact allergy to nickel was suspected; assay: Topical effect on contact hypersensitivity reaction to nickel sulphate patch; type: in vivo, humans; details: cream containing 100 μM peptide under occlusive dressing on the back, 2 hours before 5% nickel sulphate patch; examined 24 hours later
Description: This study was carried out on 18 to 65 year-old volunteer patients in whom a contact allergy to nickel was suspected.
On day 0, there are applied with an occlusive dressing, to areas of the skin of the back, on the one hand a cream containing 100 μM of the peptide of formula II, and on the other hand the cream alone, without peptide, used as placebo.
Two hours later, patches impregnated with petroleum jelly containing nickel sulphate at a concentration of 5% are applied to the same areas of the skin, and also to an adjacent area that has not been pretreated.
24 hours later, the patients are examined. Those who developed a contact hypersensitivity reaction over the area treated with the placebo (and also over the adjacent area which received only the application of nickel salt), and who are therefore people who were already sensitized to nickel, are 14 in number.

[2] = system: female Balb/C mice; assay: Contact hypersensitivity to TNCB, peptide applied topically in a water-in-oil cream; type: in vivo, mouse; details: peptide in water-in-oil cream applied to the area to be sensitized 2 hours before sensitization; 24 hours after triggering; positive controls 7×10^−2 mm
Description: The procedure is carried out as in a) above, but the peptide, incorporated in a cream of the water-in-oil type, is applied to the area to be sensitized 2 hours before the sensitization.
24 hours after the triggering reaction, the increase in the thickness of the ear is on average 3×10^−2 mm in the treated mice and 7×10^−2 mm in the positive controls.

[3] = system: female Balb/C mice; assay: Contact hypersensitivity to TNCB after a second sensitization (tolerance test); type: in vivo, mouse; details: same mice re-sensitized with TNCB 14 days after the first experiment, no new peptide; triggering 7 days later; measured 24 hours later; positive controls 14×10^−2 mm
Description: 14 days after the end of the experiment described in a) above, the same mice are subjected to a new sensitization reaction on the shaved skin of the back, as described in a).
7 days later, the triggering test is carried out by application of TNCB to the ear, and 24 hours later, the degree of swelling of the ear is measured.
The aim of this second experiment is to distinguish between a possible a specific temporary immunosuppression and a specific immunological tolerance.

[4] = system: female Balb/C mice; assay: Contact hypersensitivity to TNCB after sensitization, peptide injected i.v. before sensitization; type: in vivo, mouse; details: 1.5 μg peptide i.v. (tail vein) 2 hours before TNCB sensitization; triggering 7 days later; measured 24 hours after triggering; positive controls 9.8×10^−2 mm, negative controls 1×10^−2 mm
Description: The study is carried out on 7-to 10-week-old female Balb/C mice.
A dose of 1.5 μg of the peptide studied (in solution in PBS buffer containing 0.1% of mouse serum) is injected into a vein of the tail of the mice 2 hours before the sensitization reaction.
The sensitization reaction consists in applying, with a brush, 100 μl of a solution containing 0.15% of TNCB in an acetone-olive oil (4:1) mixture to the shaved skin of the abdomen of the mice.
The triggering reaction is carried out 7 days after the sensitization reaction. This triggering reaction consists in applying to the two sides of an ear 10 microlitres of a solution containing 0.8% of TNCB in a vehicle consisting of the acetone-olive oil mixture already mentioned above.
To the other ear, only this mixture of acetone and olive oil is applied, for comparison.
The intensity of a possible contact hypersensitivity reaction is evaluated by estimating the size of the oedema of the ear treated with TNCB, in comparison with the ear treated with the vehicle alone. For that, the thickness of the ears is measured and compared with the aid of a micrometer screw. This measurement is carried out 24 hours after the triggering reaction.
The TNCB is also applied to the ear of control mice which have not been previously sensitized (negative controls).

**Q.** For Ac-D-Lys-D-Pro-D-Val-NH2 [II], which “people (out of 14 already sensitized to nickel) who did not develop any contact hypersensitivity reaction over the area treated with the peptide” value [1] is on record?
**A.** The value was 7.

**Q.** And the “increase in the thickness of the ear” value [2]?
**A.** Its value is 3×10^−2 mm.

**Q.** And the “degree of swelling of the ear (increase in the thickness of the ear)” value [3]?
**A.** Its value is ~3.5×10^−2 mm.

**Q.** What about the “increase in the thickness of the ear” value [4] of the same substance?
**A.** Its value is “about 2.5×10^−2 mm”.
